Where two headings read alike, the source gives them in different places.

Format in all cases: cell-based
The target in data set [1] is T1, NR2F6 (Homo sapiens, UniProt P10588).
T1 construct: expressed in transfected cells; also transient transfection
T1 sequence (P10588 1-404): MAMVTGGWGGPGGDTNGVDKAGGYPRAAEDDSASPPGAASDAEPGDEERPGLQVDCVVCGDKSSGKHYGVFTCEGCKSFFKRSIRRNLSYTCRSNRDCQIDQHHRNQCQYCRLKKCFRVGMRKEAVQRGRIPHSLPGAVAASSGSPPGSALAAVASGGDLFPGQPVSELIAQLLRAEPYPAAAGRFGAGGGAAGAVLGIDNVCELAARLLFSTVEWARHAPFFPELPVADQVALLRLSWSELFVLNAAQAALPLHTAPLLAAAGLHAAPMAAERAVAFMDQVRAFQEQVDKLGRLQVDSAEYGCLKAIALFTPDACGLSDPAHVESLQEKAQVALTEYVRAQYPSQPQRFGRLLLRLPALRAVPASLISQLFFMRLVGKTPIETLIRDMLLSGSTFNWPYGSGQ
The experiment in a line: NR2F6 agonist screening, Firefly signal cmpd/DMSO. Conditions: for Firefly F4, cmpd/DMSO (mean): Table 14; for activity (in words): screening result.

Data set [2] deals with HEK293 pGL4. The experiment in a line: Firefly_pGL signal, cmpd/DMSO (pGL4 control cells). Conditions: Homo sapiens, HEK293, Table 14, read-out: Firefly pGL4, cmpd/DMSO (mean).
The subject of data set [3] is Renilla. The experiment in a line: Renilla signal in NR2F6 agonist screening, cmpd/DMSO. The conditions noted are these: for fold induction at 2 µM / fold induction at 10 µM / fold induction at 40 µM: Renilla, Table 14, read-out: Renilla F4, cmpd/DMSO (mean).

With `Cc1ccc(NC(=O)c2noc3c2CCC3)cc1C` [Compound C301], the “Firefly F4, cmpd/DMSO (mean)” value in data set [1] (2 uM) is reported as 1.2; in data set [1] (10 uM), 1.0; in data set [1] (40 uM), 1.0. For the same compound, the results for the fold induction at 2 µM in data set [2] and in data set [3] (2 uM) were 2.4 and 1.1, respectively. In addition, the fold induction at 10 µM in data set [2] was determined as 1.6; in data set [3] (10 uM), 0.7. For the same compound, the fold induction at 40 µM worked out at 1.1 in data set [2] and 1 in data set [3] (40 uM).
`Cc1ccc(NC(=O)c2noc3c2CCCC3)cc1C` [Compound C302]: the “Firefly F4, cmpd/DMSO (mean)” value in data set [1] (2 uM) worked out at 1.2; in data set [1] (10 uM), 0.9; in data set [1] (40 uM) it was 0.9. Moreover, the fold induction at 2 µM in data set [2] turned out to be 1.8; in data set [3] (2 uM) it was 0.7. Further, the fold induction at 10 µM stood at 1.4 in data set [2] and 1.1 in data set [3] (10 uM). Further, the fold induction at 40 µM worked out at 0.8 in data set [2] and 1 in data set [3] (40 uM).
As to `Cc1ccc(NC(=O)c2noc3c2CC(C(C)(C)C)CC3)cc1C` (stereo not shown) [Compound C303], the “Firefly F4, cmpd/DMSO (mean)” value in data set [1] (2 uM) came out at 1.2; in data set [1] (10 uM), 0.9; in data set [1] (40 uM) it was 0.9. Also, the fold induction at 2 µM in data set [2] turned out to be 1.1; in data set [3] (2 uM), 1. Besides, the fold induction at 10 µM came to 1.1 in data set [2] and 0.8 in data set [3] (10 uM). Moreover, the fold induction at 40 µM was found to be 1.1 in data set [2] and 1 in data set [3] (40 uM).
With `Cc1cc(C)n2nc(CNS(=O)(=O)c3ccc(F)cc3)nc2n1` [Compound E12], the “Firefly F4, cmpd/DMSO (mean)” value in data set [1] (2 uM) is 0.7; in data set [1] (10 uM), 0.9; in data set [1] (40 uM), 0.5. Moreover, the figures for the fold induction at 2 µM in data set [2] and in data set [3] (2 uM) were 0.9 and 0.7, respectively. Further, the values for the fold induction at 10 µM in data set [2] and in data set [3] (10 uM) were 0.8 and 0.7, respectively. The fold induction at 40 µM in data set [2] and in data set [3] (40 uM) was 1 each time.
For `Cc1ccc(NC(=O)c2noc3c2CC(C)CC3)cc1C` (stereo not shown) [Compound E53], in data set [1] (NR2F6 agonist activity confirmation), the “cytotox effect (decreasing both renilla and firefly activity)” value was “strong cytotox effect”. Further, the figures for the “Firefly F4, cmpd/DMSO (mean)” value in data set [1] (2 uM), in data set [1] (10 uM) and in data set [1] (40 uM) were 1.0, 1.1 and 1.4, respectively. Further, the “increase of firefly activity” value in data set [1] (at 10 uM) came to 6 times. Moreover, the “firefly signal over DMSO level” value in data set [1] (at 10 uM and 50 uM) is approximately 3 times. The fold induction at 2 µM in data set [2] turned out to be 1.5; in data set [3] (2 uM), 0.9. The fold induction at 10 µM in data set [2] was 1.4; in data set [3] (10 uM), 0.8. Also, the fold induction at 40 µM in data set [2] stood at 1.6; in data set [3] (40 uM), 1.1.
Consider `CCn1cc2c(n1)c(=O)n(Cc1ccccc1)c(=O)n2CC(=O)Nc1ccc(Br)cc1` [Compound L1], for which the “Firefly F4, cmpd/DMSO (mean)” value in data set [1] (2 uM) was 0.9; in data set [1] (10 uM), 0.5; in data set [1] (40 uM), 0.5. Besides, the fold induction at 2 µM in data set [2] and in data set [3] (2 uM) was 0.8 throughout. In addition, the figures for the fold induction at 10 µM in data set [2] and in data set [3] (10 uM) were 0.4 and 0.8, respectively. In addition, the figures for the fold induction at 40 µM in data set [2] and in data set [3] (40 uM) were 0.8 and 0.7, respectively.
On to `COc1ccc(NC(=O)c2ccc3nc(-c4ccccc4)cn3c2)c(OC)c1` [Compound P1], for which the “Firefly, cmpd/DMSO (mean)” value in data set [1] (mean of repeats) was determined as 3.5. In addition, the “Firefly, cmpd repeat 1” value in data set [1] (raw signal, repeat 1) amounted to 236. Besides, the “Firefly, cmpd repeat 2” value in data set [1] (raw signal, repeat 2) was determined as 166. For the same compound, the “Firefly, cmpd/DMSO repeat 1” value in data set [1] (repeat 1) is on record as 4.0. Also, in data set [1] (repeat 2), the “Firefly, cmpd/DMSO repeat 2” value turned out to be 3.0. Further, the “activity (in words)” value in data set [1] was “good activity”.
With `CCOC(=O)c1cnc2c(C)cc(C)cc2c1NCCCN(C)C` [Compound Z54], the results for the “Firefly F4, cmpd/DMSO (mean)” value in data set [1] (2 uM), in data set [1] (10 uM) and in data set [1] (40 uM) were 0.8, 1.6 and 0.6, respectively. The “activity (in words)” value in data set [1] was “particularly good activity”. Further, the fold induction at 2 µM in data set [2] worked out at 1.1; in data set [3] (2 uM), 0.7. In addition, the fold induction at 10 µM came out at 1.9 in data set [2] and 0.3 in data set [3] (10 uM). Also, the fold induction at 40 µM in data set [2] turned out to be 0.8; in data set [3] (40 uM) it was 0.2.
For `Cc1cc(C)n2nc(CNS(=O)(=O)c3c(F)c(F)c(F)c(F)c3F)nc2n1` [Compound Z55], the “Firefly F4, cmpd/DMSO (mean)” value in data set [1] (2 uM) turned out to be 1.1; in data set [1] (10 uM), 0.8; in data set [1] (40 uM), 2.0. Also, in data set [1], the “activity (in words)” value was “particularly good activity”. For the same compound, the fold induction at 2 µM in data set [2] and in data set [3] (2 uM) was 0.8 throughout. For the same compound, the fold induction at 10 µM turned out to be 0.7 in data set [2] and 0.3 in data set [3] (10 uM). In addition, the fold induction at 40 µM in data set [2] was determined as 2.3; in data set [3] (40 uM), 0.1.
With `Cc1cc(C)nc(Sc2nnc(-c3ccc(C)c(S(=O)(=O)N4CCOCC4)c3)c3ccccc23)n1` [Compound Z56], the “Firefly F4, cmpd/DMSO (mean)” value in data set [1] (2 uM) is given as 1.2; in data set [1] (10 uM), 2.1; in data set [1] (40 uM), 0.5. In data set [1], the “activity (in words)” value is “particularly good activity”. Besides, the fold induction at 2 µM in data set [2] was found to be 1.2; in data set [3] (2 uM), 0.9. Further, the fold induction at 10 µM is 8.9 in data set [2] and 0.3 in data set [3] (10 uM). Also, the fold induction at 40 µM in data set [2] was found to be 1.2; in data set [3] (40 uM) it was 0.2.
As to `Cc1ccc(NC(=O)c2n[nH]c3c2CC(C)CC3)cc1C` (stereo not shown) [Compound Z96], the “NR2F6_full (stable, clone F4), cmpd/DMSO Firefly” value was determined as 2.9 in data set [1] (2 uM), 2.6 in data set [1] (10 uM) and 2.6 in data set [1] (40 uM). For the same compound, the “NR2F6_full (transient), cmpd/DMSO Firefly” value in data set [1] (2 uM) was 2.4; in data set [1] (10 uM) it was 2.3; in data set [1] (40 uM), 2.4. Also, the “NR2F6_full (stable, clone F4), cmpd/DMSO Renilla” value in data set [3] (2 uM) was 1.3; in data set [3] (10 uM) it was 1.2; in data set [3] (40 uM) it was 1.2. For the same compound, the entries for the “NR2F6_full (transient), cmpd/DMSO Renilla” value in data set [3] (2 uM), in data set [3] (10 uM) and in data set [3] (40 uM) were 1.0, 1.0 and 0.9, respectively.
`COc1ccc(-c2noc(Cn3ncccc3=O)n2)cc1` [Compound Z97]: in data set [1], the “Firefly, cmpd/DMSO (mean)” value came out at 2.1. Besides, the “NR2F6_full (stable, clone F4), cmpd/DMSO Firefly” value in data set [1] (2 uM) is on record as 2.3; in data set [1] (10 uM), 2.2; in data set [1] (40 uM) it was 1.5. Besides, the “NR2F6_full (transient), cmpd/DMSO Firefly” value in data set [1] (2 uM) is 2.4; in data set [1] (10 uM), 2.8; in data set [1] (40 uM) it was 2.3. Moreover, the “NR2F6_full (stable, clone F4), cmpd/DMSO Renilla” value in data set [3] (2 uM) is 1.1; in data set [3] (10 uM) it was 1.1; in data set [3] (40 uM) it was 1.2. The “NR2F6_full (transient), cmpd/DMSO Renilla” value in data set [3] (2 uM) came out at 1.0; in data set [3] (10 uM), 1.1; in data set [3] (40 uM), 1.1.
In the case of `CC(=O)Nc1ccc(Cl)c2nonc12` [Compound Z113], the “Firefly, cmpd/DMSO (mean)” value in data set [1] is on record as 1.0; in data set [1] (Concentration 2), 1.3; in data set [1] (Concentration 10), 1.1; in data set [1] (Concentration 40), 0.9. The “F4, cmpd/DMSO (mean)” value was determined as 1.2 in data set [1] (Concentration 2), 1.5 in data set [1] (Concentration 10) and 1.2 in data set [1] (Concentration 40).
As to `COc1ccccc1-c1noc(Cn2nccc(Cl)c2=O)n1` [Compound Z134], the “Firefly, cmpd/DMSO (mean)” value in data set [1] is on record as 1.1.
The same measure, in the same setting: as for `COc1ccccc1-c1noc(Cn2ncc(Cl)cc2=O)n1` [Compound Z135], the figure is 1.0; as for `COc1cccc(-c2noc(Cn3ncc(C)c(C)c3=O)n2)c1` [Compound Z139], 1.5; as for `COc1ccc(-c2noc(Cn3ncc(C)c(C)c3=O)n2)cc1` [Compound Z140], 1.2.
Same read-out and setting: as for `COc1ccc(-c2noc(Cn3nccc(Cl)c3=O)n2)cc1` [Compound Z141], the figure is 1.8.
On the same count and under the same terms, next, `COc1ccc(-c2noc(Cn3ncc(Cl)cc3=O)n2)cc1` [Compound Z142]: 1.1; `COc1ccccc1-c1noc(COc2nccc(C)n2)n1` [Compound Z149]: 1.5.
Take `COc1ccccc1-c1noc(Cn2ncc(C)cc2=O)n1` [Compound Z150]: the “Firefly, cmpd/DMSO (mean)” value in data set [1] was found to be 1.0.
The same measure, in the same setting: as for `COc1ccccc1-c1noc(Cn2nccc(C)c2=O)n1` [Compound Z151], the figure is 1.1; as for `COc1ccc(-c2noc(Cn3ncc(C)cc3=O)n2)cc1` [Compound Z152], 1.6.
For the compound `COc1ccc(-c2noc(Cn3nccc(C)c3=O)n2)cc1` [Compound Z153], the “Firefly, cmpd/DMSO (mean)” value in data set [1] turned out to be 2.0.

For the origin of these results see patent publication US11377442B2, “Small molecule agonists and antagonists of NR2F6 activity” (ZANDER THERAPEUTICS, INC., priority 2016, dated 2022).
